Test results published in publication PMC10940743, “Discovery of a Novel Cellobiose Dehydrogenase from Cellulomonas palmilytica EW123 and Its Sugar Acids Production” (Journal of Microbiology and Biotechnology, 2023).

System: T1, CpCDH (recombinant cellobiose dehydrogenase)
T1 construct: gene cdh; signal peptide (30 residues) excluded; CYT + linker + DH domains, no CBM1; pET-28a NdeI/NotI, C-terminal His tag avoided by stop codon (N-terminal His tag implied, HisTrap); E. coli BL21(DE3); 923 residues printed; forward primer starts MVEPRH; printed 2,772 bp PCR product fits poorly with residues 31-923
Assay: spectrophotometric DCPIP reduction at […] nm, Michaelis-Menten
Format: biochemical, Cellulomonas palmilytica
Settings: DCPIP as electron acceptor; 50 mM sodium acetate pH 5.0; 25°C

Km [mM]	SMILES
2.24	OC[C@H]1O[C@@H](O[C@H]2[C@H](O)[C@@H](O)C(O)O[C@@H]2CO)[C@H](O)[C@@H](O)[C@@H]1O (some centres unmarked) [Cellobiose]
6.93	OC[C@H]1O[C@@H](O[C@H]2[C@H](O)[C@@H](O)C(O)O[C@@H]2CO)[C@H](O)[C@@H](O)[C@H]1O (some centres unmarked) [Lactose]
